A short description of experiment [1]: microbe, parasite or virus in culture. The format is functional. The following applies: Mycobacterium tuberculosis.
Experiment [2] can be described thus: cytotoxicity toward DRD oncogenic fibroblasts, dose response, cell-based, non-viral oncogenic, luminescence (AID 1934). The class given is functional. The following applies: Homo sapiens.
Experiment [3] concerns BJ. Kind of experiment: cytotoxicity toward BJ-TERT-LT-ST fibroblasts, dose response, cell-based, RAS-independent, luminescence (AID 1935).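 Note: BJ fibroblasts immortalized with TERT plus LT and ST oncogenes.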 The class given is functional. The following applies: Homo sapiens.
Experiment [4] in a line: inhibitors of intracellular T. cruzi replication, confirmation, NIH3T3 host cells, beta-gal luminescence (AID 2044).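 Note: intracellular parasites grown in NIH/3T3 mouse fibroblasts as host cells; luminescent beta-galactosidase reporter signal from transgenic T. cruzi replicating inside host cells; inhibitors lower the luminescence signal.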 The class given is functional, cell-based.
The test system of experiment [5] is BJ. As to the kind of experiment: cells. The format is functional, cell-based. The settings on record: Homo sapiens.
For experiment [6], the system named is BJ. As to the kind of experiment: cytotoxicity toward BJ-TERT fibroblasts, dose response, cell-based, RAS-independent, luminescence (AID 1933). The format is functional. The following applies: Homo sapiens.
Another experiment concerns the target T1, Mucolipin-3 (Homo sapiens, UniProt Q8TDD5).
T1 sequence (Q8TDD5 whole entry): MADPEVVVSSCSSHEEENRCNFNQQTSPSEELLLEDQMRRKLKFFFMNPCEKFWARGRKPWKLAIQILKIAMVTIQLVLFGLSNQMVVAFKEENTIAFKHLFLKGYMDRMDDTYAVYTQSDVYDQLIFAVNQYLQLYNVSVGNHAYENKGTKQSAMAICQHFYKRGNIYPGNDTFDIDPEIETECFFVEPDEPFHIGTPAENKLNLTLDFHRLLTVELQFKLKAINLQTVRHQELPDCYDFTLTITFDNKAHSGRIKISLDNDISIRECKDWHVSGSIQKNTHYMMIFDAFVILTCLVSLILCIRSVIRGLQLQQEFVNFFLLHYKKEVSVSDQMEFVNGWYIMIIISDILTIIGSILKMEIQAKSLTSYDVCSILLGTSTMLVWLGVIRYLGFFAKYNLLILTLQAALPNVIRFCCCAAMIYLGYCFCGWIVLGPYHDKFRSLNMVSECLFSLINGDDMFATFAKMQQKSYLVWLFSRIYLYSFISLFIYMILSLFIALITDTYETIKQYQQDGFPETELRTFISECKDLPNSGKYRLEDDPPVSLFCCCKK
Kind of experiment: Fluorescence counterscreen assay for […] agonists: dose response cell-based high-throughput screening assay to identify agonists of the transient receptor potential channel ML3 (TRPML3). [Related pubchem assays: 1424, 1448 ]. The format is functional.

Experiment [7] in a line: cytotoxicity toward NIH3T3 fibroblasts, dose response, counter-screen, cell-based, ATP luminescence, mouse fibroblasts (AID 2010).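 Note: cells exposed to compound for about 90 hours before reading.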 The format is functional.
Another experiment has as its target Ion channel NompC (Danio rerio, UniProt Q7T1G6). As to the kind of experiment: Dose response cell-based high-throughput screening assay for agonists of the transient receptor potential channel N1 (TRPN1). [Related pubchem assays (depositor defined):AID1424, AID1448]. The class given is functional.
Experiment [8] is described as follows: HEp-2 cell cytotoxicity, dose response, cytotoxicity control for RSV inhibitor project, HTS (AID 2410). The format is functional. The settings on record: human respiratory syncytial virus.
Experiment [9] can be described thus: cells. The class given is functional, cell-based.
Experiment [10] deals with T2, Probable nicotinate-nucleotide adenylyltransferase (Staphylococcus aureus (strain N315), UniProt P65502). The format is functional, Staphylococcus aureus subsp. aureus N315.
A short description of experiment [11]: Shn3 3'UTR reporter inhibitors, dose response, cell-based, Clone20 osteoblasts, firefly luciferase, cherry-picked (AID 624132).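 Note: firefly luciferase luminescence from reporter carrying the Shn3 3'UTR in osteoblasts.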 The format is functional.
Another experiment relates to Streptococcus. As to the kind of experiment: Group A Streptococcus viability loss, dose response, counter-screen for streptokinase expression inhibitor project, luminescence, BacTiterGlo (AID 1915).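 Note: potency for reduction of bacterial viability or growth.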 The format is functional, organism-based.
The nature of experiment [12]: control 3'UTR Renilla luciferase suppression, dose response, counter-screen for Shn3 inhibitor project, cell-based, Clone20-Shn3RL, cherry-picked (AID 624133). The format is functional.
Experiment [13] can be described thus: cells. The format is functional, cell-based. The source holds these as a separate data set.
The nature of experiment [14]: HepG2 cell cytotoxicity, dose response, cytotoxicity control for Shn3 inhibitor project, CellTiter-Glo, cherry-picked (AID 624134). The class given is functional, cell-based.
Experiment [15] has as its target T2, Probable nicotinate-nucleotide adenylyltransferase. The format is functional, Staphylococcus aureus subsp. aureus N315. The settings on record: read-out: IC50_Mean.
Experiment [16] addresses T3, Type-1 angiotensin II receptor (Homo sapiens, UniProt P30556).
T3 sequence (P30556 whole entry): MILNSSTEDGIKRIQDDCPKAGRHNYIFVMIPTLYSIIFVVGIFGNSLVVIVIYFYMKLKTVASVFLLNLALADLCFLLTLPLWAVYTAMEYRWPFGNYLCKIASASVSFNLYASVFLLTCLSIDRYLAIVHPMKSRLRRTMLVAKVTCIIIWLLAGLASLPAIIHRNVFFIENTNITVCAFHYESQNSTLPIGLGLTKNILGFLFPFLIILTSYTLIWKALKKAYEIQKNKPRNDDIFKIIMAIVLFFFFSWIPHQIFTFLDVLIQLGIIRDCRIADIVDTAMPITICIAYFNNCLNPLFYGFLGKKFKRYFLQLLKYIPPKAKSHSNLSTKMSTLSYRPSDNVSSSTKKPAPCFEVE
Kind of experiment: AT1 receptor agonists, dose response, selectivity assay for APJ receptor agonist project, cell-based, uHTS hits (AID 488865).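 Note: beta-arrestin recruitment to AT1 measured by enzyme fragment complementation luminescence.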 The format is functional.

The subject of the next experiment is INS1. Kind of experiment: beta cell apoptosis inhibitors, cytokine rescue, dose response, luminescence, retest (AID 449756).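 Note: cell death triggered by IL-1 beta plus TNF-alpha plus IFN-gamma mixture; protective hits raise ATP signal compared with cytokine alone wells.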 The settings on record: Rattus norvegicus. The format is functional, cell-based.
The test system of experiment [17] is Streptococcus sp. 'group A'. Kind of experiment: growth inhibition of control SK(-) GAS strain, dose response, counter-screen for streptokinase expression inhibitor project, luminescence, kanamycin, BacTiterGlo, confirmation (AID 1900). The class given is functional, organism-based.
A further experiment addresses T4, Streptokinase A (Streptococcus pyogenes serotype M1, UniProt P10520).
T4 sequence (P10520 whole entry): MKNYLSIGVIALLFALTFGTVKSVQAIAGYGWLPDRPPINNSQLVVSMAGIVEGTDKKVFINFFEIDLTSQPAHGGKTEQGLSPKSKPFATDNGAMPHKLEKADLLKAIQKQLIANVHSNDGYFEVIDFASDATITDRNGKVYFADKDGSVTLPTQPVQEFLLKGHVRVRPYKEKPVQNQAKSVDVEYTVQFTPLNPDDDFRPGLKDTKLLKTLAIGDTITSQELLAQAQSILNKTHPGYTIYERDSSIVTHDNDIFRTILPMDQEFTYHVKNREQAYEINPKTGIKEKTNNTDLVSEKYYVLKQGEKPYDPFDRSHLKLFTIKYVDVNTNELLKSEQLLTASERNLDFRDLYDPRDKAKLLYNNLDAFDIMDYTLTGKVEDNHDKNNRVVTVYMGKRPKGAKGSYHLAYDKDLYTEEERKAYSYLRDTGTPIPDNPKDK
Kind of experiment: S. pyogenes streptokinase expression inhibitors, potency, dose response, plasminogen activation absorbance, OD405 (AID 1914).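 Note: secreted streptokinase activity via plasminogen activation per viability signal from cell pellet.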 The class given is functional, Streptococcus pyogenes M1 GAS.

Calls of active or inactive are those of the source.
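Throughout, for IC50 Mean: confirmatory dose-response retesting of NadD inhibitor hits first found in an ultra-high-throughput screen.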

Ion channel NompC, sequence (Q7T1G6 whole entry): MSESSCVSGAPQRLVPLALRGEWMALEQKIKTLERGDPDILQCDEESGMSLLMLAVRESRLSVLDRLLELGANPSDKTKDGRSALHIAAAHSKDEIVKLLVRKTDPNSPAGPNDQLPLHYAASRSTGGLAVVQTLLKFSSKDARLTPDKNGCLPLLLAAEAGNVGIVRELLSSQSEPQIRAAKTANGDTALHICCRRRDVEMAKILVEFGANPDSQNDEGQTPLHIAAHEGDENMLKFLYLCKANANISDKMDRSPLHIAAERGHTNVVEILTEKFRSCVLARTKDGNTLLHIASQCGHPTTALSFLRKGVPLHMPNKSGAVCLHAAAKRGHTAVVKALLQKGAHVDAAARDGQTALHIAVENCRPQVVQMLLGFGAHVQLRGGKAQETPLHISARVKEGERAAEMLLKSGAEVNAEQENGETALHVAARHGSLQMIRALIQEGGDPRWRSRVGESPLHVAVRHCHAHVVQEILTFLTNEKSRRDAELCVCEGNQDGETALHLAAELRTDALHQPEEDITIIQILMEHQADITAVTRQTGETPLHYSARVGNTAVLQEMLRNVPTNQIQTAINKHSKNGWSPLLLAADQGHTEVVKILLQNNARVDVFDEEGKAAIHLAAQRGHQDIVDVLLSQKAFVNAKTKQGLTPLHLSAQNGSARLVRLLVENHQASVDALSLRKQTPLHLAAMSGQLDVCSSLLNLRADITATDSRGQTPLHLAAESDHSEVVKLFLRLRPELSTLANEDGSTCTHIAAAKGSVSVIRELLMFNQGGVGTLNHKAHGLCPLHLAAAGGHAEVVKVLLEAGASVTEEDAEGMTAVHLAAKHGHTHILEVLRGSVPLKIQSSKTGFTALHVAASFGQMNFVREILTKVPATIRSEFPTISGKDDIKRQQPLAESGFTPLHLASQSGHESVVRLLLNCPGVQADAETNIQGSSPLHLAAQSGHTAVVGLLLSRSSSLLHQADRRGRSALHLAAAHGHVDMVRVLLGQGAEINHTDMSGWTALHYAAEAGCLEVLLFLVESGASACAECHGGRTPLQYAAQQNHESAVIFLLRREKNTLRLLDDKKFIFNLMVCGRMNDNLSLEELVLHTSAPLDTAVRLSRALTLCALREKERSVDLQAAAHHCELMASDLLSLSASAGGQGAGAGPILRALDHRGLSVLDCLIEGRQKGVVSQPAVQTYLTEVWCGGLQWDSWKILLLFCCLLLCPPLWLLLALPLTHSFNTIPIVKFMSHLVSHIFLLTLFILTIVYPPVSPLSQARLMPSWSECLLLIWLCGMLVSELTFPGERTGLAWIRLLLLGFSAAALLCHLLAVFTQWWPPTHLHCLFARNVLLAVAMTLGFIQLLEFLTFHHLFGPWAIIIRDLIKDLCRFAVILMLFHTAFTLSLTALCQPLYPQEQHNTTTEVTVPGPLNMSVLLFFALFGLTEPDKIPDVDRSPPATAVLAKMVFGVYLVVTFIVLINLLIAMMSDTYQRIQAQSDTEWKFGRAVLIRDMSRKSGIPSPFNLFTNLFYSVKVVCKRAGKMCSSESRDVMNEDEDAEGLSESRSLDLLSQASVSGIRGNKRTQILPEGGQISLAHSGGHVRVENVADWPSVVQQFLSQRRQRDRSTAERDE
T2 sequence (P65502 whole entry): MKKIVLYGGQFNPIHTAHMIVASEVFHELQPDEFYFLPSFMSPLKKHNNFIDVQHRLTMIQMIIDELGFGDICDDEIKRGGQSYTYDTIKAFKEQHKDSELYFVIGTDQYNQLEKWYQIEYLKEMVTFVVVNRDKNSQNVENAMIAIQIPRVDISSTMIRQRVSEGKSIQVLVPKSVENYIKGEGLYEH

Consider `CCN(CC)c1ccc(/C=C2\SC(=O)N(C(C)C)C2=O)o1`, for which the CC50 in [1] was 38.7 µM (active). Further, the EC50 in [2] is 35.7 µM (active); in the experiment on BJ [3], > 75 µM (inconclusive); in [4], 2.09 µM (active); with BJ [5] it was 20.5 µM (active); with BJ [6] it was 11.7 µM (active); on Mucolipin-3, > 9.97 µM (not active). For the same compound, the EC50 was 18.4 µM (active) in experiment [7] and > 9.97 µM (inactive) at Ion channel NompC.
On to `COc1ccccc1CC(=O)Nc1ccc([N+](=O)[O-])cc1O`, for which the results for the EC50 at Mucolipin-3 and on Ion channel NompC were > 29.9 µM (not active) and > 29.9 µM (inactive), respectively. The CC50 in [8] is 27.7 µM (active).
Consider `Cc1cc(C)c2nc(NNC(=O)c3ccc(S(=O)(=O)N4CCc5ccccc5C4)cc3)sc2c1`, for which the EC50 in “cells [9]” is > 350 µM (not active); in [4], 0.661 µM (active); in the experiment with Streptococcus it was 61.5 µM (inconclusive); in the experiment “cells [13]” it was 7.06 µM (active); in experiment [7], < 6 µM (inconclusive); in [16], > 100 µM (inactive). Besides, the EC50 in experiment [17] is 0.458 µM (active); on Streptokinase A, > 150 µM (not active). In addition, the figures for the IC50 in experiment [10] and in experiment [15] were 7.18 µM (active) and 38.1 µM (active), respectively. Further, the AC50 in [11] is 1.98 µM (active); in experiment [12], 3.35 µM (active); in experiment [14], 2.91 µM (active); with INS1, 2.19 µM (active).

The values above are taken from ChEMBL document CHEMBL1201862, “PubChem BioAssay data set” (2004).
